From publication PMC9304322, “Targeting retinoic acid receptor alpha-corepressor interaction activates chaperone-mediated autophagy and protects against retinal degeneration” (Nature Communications, 2022)
“And” between values parts separate entries of the source, which are not always exact repeats. Equal values may be shown once.

Legend:
[1] = system: NIH3T3 stably expressing the KFERQ-PS-Dendra; assay: CMA activity, KFERQ-PS-Dendra fluorescent reporter in NIH3T3 mouse fibroblasts; type: cell-based; set-up: CMA activity (Fig. 1d), MEAN / CMA activity (Fig. 1e-g), mean / CMA activity (Fig. 1d), individual experiments / CMA activity, mean (Fig. S2c, second panel) / CMA activity, mean (Fig. S2c, first panel) / CMA activity, mean (Fig. S2c, third panel): unit not given here; conditions: for CMA activity (Fig. 1e-g), mean: n = 4
Description: (§1) Cells were transduced with lentivirus carrying the KFERQ-PS-Dendra reporter as before. Cells were photoactivated by exposure to a 3.5 mA (current constant) light emitting diode (LED: Norlux, 405 nm) for 3 min and then plated in glass-bottom 96 well plates. At the desired times, cells were fixed with 4% PFA and imaged using high-content microscopy (Operetta system, Perkin Elmer). Images were quantified using the manufacturer’s software in a minimum of 1,200 cells in 9 independent fields per well. […] This was particularly important in the case of primary human cells where the efficiency of transduction was ~65%. To avoid confounding effects for drug-induced changes in cell volume or adherence to the plate that could bring a fraction of the cells per field outside of focus, we set a threshold to count only […] that have at least 1/10 of the average number of […] detected in the untreated wells for each cell type (3–4 puncta/cell in the case of NIH3T3 and N2a cells and 5 puncta/cell in primary human fibroblasts).

[2] = system: primary human fibroblast expressing the KFERQ-PS-Dendra reporter; assay: CMA activity, KFERQ-PS-Dendra reporter in primary human fibroblasts; type: cell-based; set-up: key to CMA activity, mean (Fig. S2c): puncta per cell
Description: as §1

[3] = system: NIH3T3 cells stably expressing the mCherry-GFP-LC3 reporter; assay: Macroautophagy activity, mCherry-GFP-LC3 reporter; type: cell-based, mouse
Description: Cells were transduced with a lentiviral vector expressing mCherry-GFP-LC3[35], fixed and flux determined as the conversion of dual fluorescence puncta (autophagosomes) into only red fluorescent puncta (autolysosomes). Flux was also measured by immunoblot for LC3 in cells incubated for 6 h with 20 mM NH4Cl/100 μM leupeptin, by discounting the intensity of LC3 in non-treated cells from that in cells treated with the inhibitors.

[4] = c0 = 2 (axis unlabelled; ANOVA calls row factor Time)

Cc1ccc(C2=Nc3ccc(Cl)cc3OC2)cc1 [AR7, reference compound]
CMA activity (Fig. 1d), MEAN ([1]; 20 μM of each compound, n = 3 independent experiments): 1.943 | CMA activity (Fig. 1d), individual experiments ([1]; 20 μM of each compound, single experiments): 1.682 and 2.334 and 1.814 | CMA activity (Fig. 1e-g), mean ([1]; 12h, concentration 0.02 (unit not given)): 12.0505 | CMA activity (Fig. 1e-g), mean ([1]; 12h, concentration 0.2): 11.7342 | CMA activity (Fig. 1e-g), mean ([1]; 12h, concentration 2): 11.803 | CMA activity (Fig. 1e-g), mean ([1]; 12h, concentration 5): 19.8949 | CMA activity (Fig. 1e-g), mean ([1]; 12h, concentration 10): 20.5334 | CMA activity (Fig. 1e-g), mean ([1]; 12h, concentration 20): 21.2219 | CMA activity (Fig. 1e-g), mean ([1]; 12h, concentration 30): 22.9989 | CMA activity (Fig. 1e-g), mean ([1]; 12h, concentration 40): 22.6487 | CMA activity (Fig. 1e-g), mean ([1]; 12h, concentration 50): 26.5841 | CMA activity (Fig. 1e-g), mean ([1]; 24h, concentration 0.02): 9.918 | CMA activity (Fig. 1e-g), mean ([1]; 24h, concentration 0.2): 11.4731 | CMA activity (Fig. 1e-g), mean ([1]; 24h, concentration 2): 13.7252 | CMA activity (Fig. 1e-g), mean ([1]; 24h, concentration 5): 18.3275 | CMA activity (Fig. 1e-g), mean ([1]; 24h, concentration 10): 23.1811 | CMA activity (Fig. 1e-g), mean ([1]; 24h, concentration 20): 24.726 | CMA activity (Fig. 1e-g), mean ([1]; 24h, concentration 30): 25.9835 | CMA activity (Fig. 1e-g), mean ([1]; 24h, concentration 40): 28.2999 | CMA activity (Fig. 1e-g), mean ([1]; 24h, concentration 50): 27.6884 | CMA activity (Fig. 1h-j), mean, untreated (0) = 1 ([1]; concentration 0.2, 12+12w (12 h, then 12 h after washing out)): 0.9356 | CMA activity (Fig. 1h-j), mean, untreated (0) = 1 ([1]; concentration 0.2, 12h): 1.057 | CMA activity (Fig. 1h-j), mean, untreated (0) = 1 ([1]; concentration 0.2, 24h): 0.9789 | CMA activity (Fig. 1h-j), mean, untreated (0) = 1 ([1]; concentration 2, 12+12w): 0.9942 | CMA activity (Fig. 1h-j), mean, untreated (0) = 1 ([1]; concentration 2, 12h): 1.064 | CMA activity (Fig. 1h-j), mean, untreated (0) = 1 ([1]; concentration 2, 24h): 1.171 | CMA activity (Fig. 1h-j), mean, untreated (0) = 1 ([1]; concentration 5, 12+12w): 1.015 | CMA activity (Fig. 1h-j), mean, untreated (0) = 1 ([1]; concentration 5, 12h): 1.7927 | CMA activity (Fig. 1h-j), mean, untreated (0) = 1 ([1]; concentration 5, 24h): 1.564 | CMA activity (Fig. 1h-j), mean, untreated (0) = 1 ([1]; concentration 10, 12+12w): 0.9858 | CMA activity (Fig. 1h-j), mean, untreated (0) = 1 ([1]; concentration 10, 12h): 1.85 | CMA activity (Fig. 1h-j), mean, untreated (0) = 1 ([1]; concentration 10, 24h): 1.978 | CMA activity (Fig. 1h-j), mean, untreated (0) = 1 ([1]; concentration 20, 12+12w): 0.9968 | CMA activity (Fig. 1h-j), mean, untreated (0) = 1 ([1]; concentration 20, 12h): 1.912 | CMA activity (Fig. 1h-j), mean, untreated (0) = 1 ([1]; concentration 20, 24h): 2.11 | CMA activity (Fig. 1h-j), mean, untreated (0) = 1 ([1]; concentration 30, 12+12w): 1.224 | CMA activity (Fig. 1h-j), mean, untreated (0) = 1 ([1]; concentration 30, 12h): 2.072 | CMA activity (Fig. 1h-j), mean, untreated (0) = 1 ([1]; concentration 30, 24h): 2.217 | CMA activity, mean (Fig. S2c) ([2]; concentration 0.02): 24.0456 | CMA activity, mean (Fig. S2c) ([2]; concentration 0.2): 28.2677 | CMA activity, mean (Fig. S2c) ([2]; concentration 2): 18.5469 | CMA activation in human cells ([2]; in words): very discrete | effect on macroautophagy ([3]; NIH3T3, MRT-sensitive proteolysis, LC3-II flux, mCherry-GFP-LC3 reporter): did not have the inhibitory effect on macroautophagy | APG (Fig. S3e) [3, 4]: 0.9242 | AUT (Fig. S3e) [3, 4]: 2.505 | AV (Fig. S3e) [3, 4]: 3.429 | APG (Fig. S3e) ([3]; c0 = 5 (axis unlabelled)): 0.8222 | AUT (Fig. S3e) ([3]; c0 = 5 (axis unlabelled)): 2.321 | AV (Fig. S3e) ([3]; c0 = 5 (axis unlabelled)): 3.1431 | APG (Fig. S3e) ([3]; c0 = 10 (axis unlabelled)): 0.7738 | AUT (Fig. S3e) ([3]; c0 = 10 (axis unlabelled)): 2.246 | AV (Fig. S3e) ([3]; c0 = 10 (axis unlabelled)): 3.0194 | APG (Fig. S3e) ([3]; c0 = 15 (axis unlabelled)): 0.7216 | AUT (Fig. S3e) ([3]; c0 = 15 (axis unlabelled)): 2.244 | AV (Fig. S3e) ([3]; c0 = 15 (axis unlabelled)): 2.965 | APG (Fig. S3e) ([3]; c0 = 20 (axis unlabelled)): 0.9029 | AUT (Fig. S3e) ([3]; c0 = 20 (axis unlabelled)): 2.059 | AV (Fig. S3e) ([3]; c0 = 20 (axis unlabelled)): 2.962 | APG (Fig. S3e) ([3]; c0 = 25 (axis unlabelled)): 0.9112 | AUT (Fig. S3e) ([3]; c0 = 25 (axis unlabelled)): 2.774 | AV (Fig. S3e) ([3]; c0 = 25 (axis unlabelled)): 3.685 | APG (Fig. S3e) ([3]; c0 = 30 (axis unlabelled)): 0.9867 | AUT (Fig. S3e) ([3]; c0 = 30 (axis unlabelled)): 2.8387 | AV (Fig. S3e) ([3]; c0 = 30 (axis unlabelled)): 3.825 | APG (Fig. S3e) ([3]; c0 = 40 (axis unlabelled)): 1.111 | AUT (Fig. S3e) ([3]; c0 = 40 (axis unlabelled)): 2.723 | AV (Fig. S3e) ([3]; c0 = 40 (axis unlabelled)): 3.834 | APG (Fig. S3e) ([3]; c0 = 50 (axis unlabelled)): 0.7488 | AUT (Fig. S3e) ([3]; c0 = 50 (axis unlabelled)): 3.18 | AV (Fig. S3e) ([3]; c0 = 50 (axis unlabelled)): 3.929
